# Where two headings read alike, the source gives them in different places.
# Assays:
# L1210/DDP [1] = assay: Growth inhibition in L1210/DDP cells; assay type: cell-based, murine; details: for IC50: 2 hours of exposure, mean (±SE), 3 experiments of 2 determinations; for RF, resistance factor: IC50 L1210/DDP / IC50 L1210/0, 2 hours of exposure
# L1210/0 [2] = assay: Cellular accumulation in L1210/0 cells; assay type: cell-based, murine; details: 2 hours of exposure; (±SE), 3 experiments of 2 determinations
# Procedure: (§1) Cellular accumulation. The cellular accumulation assays followed published procedures (7). Briefly, cells were resuspended at 10^7/mL in media supplemented with […]. Platinum complexes were added, and samples were incubated at 37° C. in 5% CO2. At 0 and 2 hours aliquots were removed for determination of cell concentrations and for measurement of platinum content. For the latter, aliquots were washed three times in cold phosphate buffered saline, resuspended in 1% Triton-X in water, and sonicated. Platinum content was measured by flameless atomic absorption spectroscopy.
# (§2) The cellular accumulation of the blocked Pt compound 2 was also investigated. […] Based solely on charge considerations the BOC-spermidine with a charge of 2+ should have cellular uptake similar to 1,1/t,t (n=6). The enhanced uptake could be explained by some hydrolysis in media or plasma producing small amounts of the protonated 1,1/t,t-spermidine. Considering the potency of polynuclear-polyamine compounds, a small percentage of hydrolysis could have a significant impact on in vivo activity.
# L1210/DDP [3] = assay: Cellular accumulation in L1210/DDP cells; assay type: cell-based, murine; details: 2 hours of exposure; (±SE), 3 experiments of 2 determinations
# Procedure: as §1, §2
# L1210/0 [4] = assay: Growth inhibition in L1210/0 cells; assay type: cell-based, murine; details: 2 hours of exposure; mean (±SE), 3 experiments of 2 determinations
# Description: To examine the pro-drug potential in a biological setting, a comparison of the pharmacological properties of the blocked polyamine compounds in L1210 murine leukemia cells was undertaken.
# CH1/CDDP = assay: SRB growth inhibition assay, CH1/CDDP; assay type: cell-based, human; details: for IC50: 96 h exposure; for RF CH1/CDDP: IC50 resistant/IC50 parent line, 96 h
# Procedure: (§3) Cell culture. A2780, A2780/CDDP, CH1, CH1/CDDP, 41M and 41M/CDDP cell lines were used in this study and maintained according to published procedures. (8,9).
# (§4) Growth inhibition assay. The Sulforhodamine B (SRB) assay was used to determine growth inhibition potency of platinum drugs (10). The cells were seeded in 96-well microtitre plates at 3-8×10^3 cells/well in 160 μL growth medium and allowed to attach overnight. Platinum agents were then added after serial dilution in quadruplicate wells and exposed to cells for 2 or 96 hours. After the 2 hours drug incubations were complete, plates were washed free of drug with phosphate-buffered saline (PBS) and then refed with normal growth medium for a further 94 hours. Quantitation of cell growth in treated and control wells was then assessed using 0.4% SRB dissolved in 1% acetic acid. IC50 values were determined graphically. […]
# [5] = assay type: physicochemical; details: for Rate constant for the deprotection: first order; for % 1 (percentage of 1 of the overall integration in the chromatogram after incubation): uncorrected
# Procedure: Analyses of the products and hydrolysis studies were carried out on an analytical Beckman System Gold Nouveau HPLC instrument with UV detection at 215 nm. A Lichrosphere RP-8 column (5 μm particle size, dimensions 250 mm×4 mm) was used with a solvent gradient from water/methanol 97:3 (0.05 M NaClO4, 1% NaCl) to water/methanol 70:30 (0.05 M NaClO4, 2% NaCl).
# Hydrolysis Study. For the hydrolysis experiments 10^−3 mMol complex were dissolved in 1 mL of nanopure water. The pH of the solutions was adjusted by addition of HNO3 (0.1 M, 0.01 M) and NaOH (0.1 M, 0.01 M), respectively. The samples were incubated in a water bath at 37° C. and aliquots of 20 μL were taken from the bulk solution for HPLC analysis. The pH values of the samples were controlled in regular intervals and readjusted if necessary.
# The hydrolysis of the protective groups of compounds 2-4 was monitored at 37° C. at various pH values. […] In addition, the chromatogram of 2 contained a peak of a minor impurity (ca 0.4%) which remained unchanged during the timecourse of the reaction. Deprotection of the secondary amino function leads to the appearance of a signal for the unprotected spermidine complex 1 that, as a consequence of the increased cationic charge, is well separated from the signal of the N4 blocked precursor. The area percentage of the integrated signal of the unprotected species is taken as an estimate for the amount of hydrolysis at a given timepoint. To allow for a more accurate quantitative comparison of results, the extinction coefficients for compounds 1-4 were determined at 215 nm (Table 1). The integral values of the blocked compounds have been corrected for the higher absorbance of these species at the observed wavelength compared to the unprotected species 1. Table 2 provides a summary of the amount of hydrolysis for all samples before and after the correction. Rate constants were calculated based on the corrected integral values.
# The hydrolysis of the blocking groups of on the N4 position of compounds 5-7 was monitored at 37° C. over a pH range of 6-8.
# The amount of 1,1/t,t-spermidine released over time is depicted in FIG. 8. No other products were detected, trifluoroacetate, originating from the hydrolysis reaction, is not retained on the column under the present conditions and coelutes with the other anions (Cl^− from 5, NO3^− from pH adjustment). In order to obtain rate constants for the conversion of 7 to 1,1/t,t-spermidine, the integral values of the chromatograms were corrected for the different absorption of the species at the observed wavelength (ε215: 1, 3.64·10^3; 5, 7.62·10^3; 6, 10.4·10^3; 7, 9.46·10^3 L.Mol^−1 .cm^−1). Concentrations were calculated based on the assumption that the sum of the concentrations of both species at every time point equals the original concentration of 7 at the start of the experiment. First order rate constants were obtained using the program MicroMath Scientist Version 2.01. The results are summarized in Table 3 and compared with values obtained for BOC and Fmoc protected spermidine complexes.
# 41M = assay: SRB growth inhibition assay, 41M; assay type: cell-based, human; details: 96 h exposure
# Procedure: as §3
# (§5) Growth inhibition assay. The Sulforhodamine B (SRB) assay was used to determine growth inhibition potency of platinum drugs (10). The cells were seeded in 96-well microtitre plates at 3-8×10^3 cells/well in 160 μL growth medium and allowed to attach overnight. Platinum agents were then added after serial dilution in quadruplicate wells and exposed to cells for 2 or 96 hours. After the 2 hours drug incubations were complete, plates were washed free of drug with phosphate-buffered saline (PBS) and then refed with normal growth medium for a further 94 hours. Quantitation of cell growth in treated and control wells was then assessed using 0.4% SRB dissolved in 1% acetic acid. IC50 values were determined graphically.
# (§6) Of special interest is the remarkably low value for 4 (Fmoc) in A2780 cells.
# CH1 = assay: SRB growth inhibition assay, CH1; assay type: cell-based, human; details: 96 h exposure
# Procedure: as §3, §5, §6
# A2780 = assay: SRB growth inhibition assay, A2780; assay type: cell-based, human; details: 96 h exposure
# Procedure: as §3, §5, §6
# A2780/CDDP = assay: SRB growth inhibition assay, A2780/CDDP; assay type: cell-based, human; details: for IC50: 96 h exposure; for RF A2780/CDDP: IC50 resistant/IC50 parent line, 96 h
# Procedure: as §3, §4
# [6] = pH 5, 37° C., time 42 d (2), 30 d (3), 41 d (4)
# [7] = pH 6, 37° C., time 42 d (2), 42 d (3), 41 d (4)
# [8] = pH 7, 37° C., time 25 d (2), 41 d (4)
SMILES,IC50 (L1210/DDP [1]),"RF, resistance factor (L1210/DDP [1])",Accumulation L1210/0 (L1210/0 [2]),Accumulation L1210/DDP (L1210/DDP [3]),IC50 (L1210/0 [4]),IC50 (CH1/CDDP),RF CH1/CDDP (CH1/CDDP),"% 1, corrected for the different extinction coefficients at 215 nm [5, 6]","Rate constant for the deprotection ([5]; pH 5, 37° C.)","% 1, corrected for the different extinction coefficients at 215 nm [5, 7]","Rate constant for the deprotection ([5]; pH 6, 37° C.)","% 1, corrected for the different extinction coefficients at 215 nm [5, 8]","Rate constant for the deprotection ([5]; pH 7, 37° C.)",IC50 (41M),IC50 (CH1),IC50 (A2780),IC50 (A2780/CDDP),RF A2780/CDDP (A2780/CDDP),"% 1 (percentage of 1 of the overall integration in the chromatogram after incubation) [5, 6]","% 1 (percentage of 1 of the overall integration in the chromatogram after incubation) [5, 7]",other results
"N.N.N.N.NCCCCCCN.[Cl][Pt+].[Cl][Pt+] [1,1/tt, [trans-{PtCl(NH3)2}2H2N(CH2)6NH2]^2+, reference compound]",16 µM,4.3,3.8 (0.70) attamol Pt complex/cell,0.67 (0.21) attamol Pt complex/cell,3.7 µM,–,–,–,–,–,–,–,–,–,–,–,–,–,–,–,–
"CC(C)(C)OC(=O)N(CCCN)CCCCN.N.N.N.N.[Cl-].[Cl-].[Cl][Pt+].[Cl][Pt+] [Compound 2, [{trans-Pt(NH3)2Cl}2——N^4-BOC-spermidine-N^1,N^8]Cl2]",4.6 µM,3.7,5.0 (0.63) attamol Pt complex/cell,4.8 (0.75) attamol Pt complex/cell,1.25 µM,11 µM,1.4,[15.1] %,4.65 (±0.04) · 10^−8 s^−1,[13.8] %,4.29 (±0.05) · 10^−8 s^−1,[6.6] %,3.12 (±0.04) · 10^−8 s^−1,17 µM,8 µM,2.1 µM,19 µM,9.0,–,–,"Rate constant for the deprotection ([5]; pH 6.6, 37° C.): 3.51 (±0.05) · 10^−8 s^−1"
"N.N.N.N.NCCCCN(CCCN)C(=O)OCc1ccccc1.[Cl-].[Cl-].[Cl][Pt+].[Cl][Pt+] [Compound 3, [{trans-Pt(NH3)2Cl}2— —N^4-CBz-spermidine-N^1,N^8]Cl2]",–,–,–,–,–,43 µM,1.7,[0.13] %,–,[0.12] %,–,–,–,> 100 µM,25 µM,24 µM,100 µM,4.2,0.05%,0.05%,"amount of 1 detected in the samples ([5]; pH 5 and 6, 37° C., over the complete timecourse): below 0.1%"
"N.N.N.N.NCCCCN(CCCN)C(=O)OCC1c2ccccc2-c2ccccc21.[Cl-].[Cl-].[Cl][Pt+].[Cl][Pt+] [Compound 4, [{trans-Pt(NH3)2Cl}2——N^4-Fmoc-spermidine-N^1,N^8]Cl2]",–,–,–,–,–,62 µM,1.3,[1.0] %,3.99 (±0.96) · 10^−9 s^−1,[3.0] %,9.74 (±0.88) · 10^−9 s^−1,[19.6] %,6.12 (±0.09) · 10^−8 s^−1,> 100 µM,46 µM,0.84 µM,65 µM,77,0.14%,0.45%,"hydrolyzed species observed (HPLC profile) ([5]; pH 5 and 6, 37° C.): only minor amounts; % 1 (percentage of 1 of the overall integration in the chromatogram after incubation) [5, 8]: 3.4%; free spermidine complex released (HPLC profile) ([5]; pH 7 and 8, 37° C.): considerable amounts; % 1, corrected for the different extinction coefficients at 215 nm ([5]; pH 8, 37° C., time 30 d (4)): [35.2] %; Rate constant for the deprotection ([5]; pH 8, 37° C.): 1.44 (±0.07) · 10^−7 s^−1; % 1 (percentage of 1 of the overall integration in the chromatogram after incubation) ([5]; pH 8, 37° C., time 30 d (4)): 7.3%"
"N.N.[Cl][Pt][Cl] [cisplatin, reference compound]",59 µM,44,5.0 (0.89) attamol Pt complex/cell,1.5 (0.76^ attamol Pt complex/cell,1.3 µM,1.1 µM,3.2,–,–,–,–,–,–,2.3 µM,0.34 µM,1.6 µM,12 µM,7.5,–,–,–

# — patent US7579373B2, “Targeted bisplatinum polyamines as pro-drugs: selective release of platinum” (Virginia Commonwealth University, priority 2002, dated 2009)
